Test results published in patent publication US20240269139A1, “COMPOUNDS FOR TARGETED PROTEIN DEGRADATION OF KINASES” (DANA-FARBER CANCER INSTITUTE, INC., priority 2020, published 2024).
Read-outs that look alike come from different tables or passages of the source.

Tests used:
[1] = target: T1, extended human kinome (kinase-like proteins) (Homo sapiens, UniProt P54886); assay: Whole cell quantitative proteomics: extended kinome hits; details: Accession P54886
T1 sequence (P54886 1-795): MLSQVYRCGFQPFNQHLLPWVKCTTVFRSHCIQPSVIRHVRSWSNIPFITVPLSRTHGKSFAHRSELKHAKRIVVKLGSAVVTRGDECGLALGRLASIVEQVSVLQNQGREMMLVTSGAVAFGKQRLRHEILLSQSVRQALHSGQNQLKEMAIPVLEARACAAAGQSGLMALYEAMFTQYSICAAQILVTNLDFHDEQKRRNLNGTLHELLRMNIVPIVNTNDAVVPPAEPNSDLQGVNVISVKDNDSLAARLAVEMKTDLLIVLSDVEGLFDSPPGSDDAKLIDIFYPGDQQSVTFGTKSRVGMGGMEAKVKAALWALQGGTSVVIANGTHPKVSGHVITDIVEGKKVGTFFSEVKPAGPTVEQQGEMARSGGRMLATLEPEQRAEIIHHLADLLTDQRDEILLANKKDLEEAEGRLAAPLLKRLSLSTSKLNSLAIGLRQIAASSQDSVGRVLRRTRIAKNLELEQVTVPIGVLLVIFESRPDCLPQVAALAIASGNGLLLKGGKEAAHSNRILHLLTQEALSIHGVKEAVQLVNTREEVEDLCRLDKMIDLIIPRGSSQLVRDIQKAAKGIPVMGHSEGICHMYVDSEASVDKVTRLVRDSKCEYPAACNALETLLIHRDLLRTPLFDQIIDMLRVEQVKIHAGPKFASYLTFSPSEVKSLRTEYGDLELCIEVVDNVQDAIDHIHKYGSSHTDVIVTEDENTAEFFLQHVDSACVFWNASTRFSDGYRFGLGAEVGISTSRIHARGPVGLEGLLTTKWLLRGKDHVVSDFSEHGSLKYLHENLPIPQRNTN

[2] = system: protein kinases (human kinome); format: cell-based; details: for logFC of CDK17: Accession Q00537-2; for logFC of LIMK2: LIMK2 P53671-3; for logFC PDK3: PDK3 (Q15120-2); for logFC of SRC: Accession P12931-2; for logFC LCK: accession P06239-3; for logFC LCK / logFC LCK (P06239-3): direction of change down
[3] = target: T2, protein kinases (human kinome) (Homo sapiens, UniProt Q9NYY8); format: cell-based; details: direction down
T2 sequence (Q9NYY8 1-710): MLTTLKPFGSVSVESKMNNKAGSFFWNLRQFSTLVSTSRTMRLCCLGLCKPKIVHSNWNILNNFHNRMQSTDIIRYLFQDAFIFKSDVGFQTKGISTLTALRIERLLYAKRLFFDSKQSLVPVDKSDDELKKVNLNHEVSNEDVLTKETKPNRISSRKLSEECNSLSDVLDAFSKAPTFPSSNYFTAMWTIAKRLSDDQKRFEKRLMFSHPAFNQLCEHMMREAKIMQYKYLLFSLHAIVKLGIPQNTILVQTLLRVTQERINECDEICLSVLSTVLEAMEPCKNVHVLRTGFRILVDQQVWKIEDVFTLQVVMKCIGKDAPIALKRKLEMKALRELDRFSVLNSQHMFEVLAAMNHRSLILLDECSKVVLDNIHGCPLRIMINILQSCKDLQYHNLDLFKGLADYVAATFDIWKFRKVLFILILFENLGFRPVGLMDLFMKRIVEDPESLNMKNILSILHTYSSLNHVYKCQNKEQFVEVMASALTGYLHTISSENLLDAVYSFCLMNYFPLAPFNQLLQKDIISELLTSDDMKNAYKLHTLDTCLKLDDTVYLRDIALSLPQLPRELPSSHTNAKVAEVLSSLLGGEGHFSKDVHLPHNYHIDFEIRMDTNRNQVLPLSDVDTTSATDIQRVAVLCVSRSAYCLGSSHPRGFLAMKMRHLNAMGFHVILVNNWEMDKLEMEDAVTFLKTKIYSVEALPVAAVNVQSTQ

[4] = target: protein kinases (human kinome) (Homo sapiens, UniProt P30291); format: cell-based
[5] = target: protein kinases (human kinome) (Homo sapiens, UniProt P51451); format: cell-based; details: for logFC BLK: BLK (P51451), direction down; for logFC of BLK (P51451): down
[6] = AURKB Q96GD4-5, experiment wp131
[7] = AURKB Q96GD4-5, experiment wp137

Chain of protein kinases (human kinome) (Homo sapiens, UniProt P51451) (P51451 whole entry): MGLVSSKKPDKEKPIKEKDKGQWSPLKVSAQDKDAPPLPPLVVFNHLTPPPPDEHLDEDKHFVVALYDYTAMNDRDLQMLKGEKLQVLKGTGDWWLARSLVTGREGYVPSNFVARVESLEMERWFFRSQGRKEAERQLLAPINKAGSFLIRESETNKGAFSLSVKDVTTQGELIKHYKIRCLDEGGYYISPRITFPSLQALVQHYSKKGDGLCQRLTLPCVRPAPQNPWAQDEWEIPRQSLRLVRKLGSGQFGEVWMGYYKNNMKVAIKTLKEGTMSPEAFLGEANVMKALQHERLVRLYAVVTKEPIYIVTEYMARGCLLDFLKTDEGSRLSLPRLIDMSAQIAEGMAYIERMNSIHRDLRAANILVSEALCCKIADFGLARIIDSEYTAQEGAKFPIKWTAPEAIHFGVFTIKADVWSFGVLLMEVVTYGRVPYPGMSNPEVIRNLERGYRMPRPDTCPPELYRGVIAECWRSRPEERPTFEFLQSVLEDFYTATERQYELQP
Chain of protein kinases (human kinome) (Homo sapiens, UniProt P30291) (P30291 whole entry): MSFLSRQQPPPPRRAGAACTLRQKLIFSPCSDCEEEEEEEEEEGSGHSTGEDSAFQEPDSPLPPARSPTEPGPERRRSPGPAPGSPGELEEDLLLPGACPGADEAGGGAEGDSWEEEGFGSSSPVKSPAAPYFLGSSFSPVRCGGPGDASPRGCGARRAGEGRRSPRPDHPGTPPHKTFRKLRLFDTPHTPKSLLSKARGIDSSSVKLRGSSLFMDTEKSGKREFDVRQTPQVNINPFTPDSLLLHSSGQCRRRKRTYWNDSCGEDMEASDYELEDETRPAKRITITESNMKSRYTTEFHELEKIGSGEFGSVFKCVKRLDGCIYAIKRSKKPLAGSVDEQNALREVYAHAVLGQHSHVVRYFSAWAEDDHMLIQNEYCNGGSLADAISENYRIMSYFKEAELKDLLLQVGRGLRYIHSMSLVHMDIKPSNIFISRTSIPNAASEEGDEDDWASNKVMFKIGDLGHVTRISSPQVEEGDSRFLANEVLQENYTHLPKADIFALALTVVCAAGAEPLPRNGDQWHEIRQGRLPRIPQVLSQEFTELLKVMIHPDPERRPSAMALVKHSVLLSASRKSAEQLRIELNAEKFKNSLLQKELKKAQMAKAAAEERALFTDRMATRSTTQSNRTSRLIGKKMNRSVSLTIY

SMILES: Cc1cnc(Nc2ccc(N3CCN(CCOCCOCCNC(=O)COc4cccc5c4C(=O)N(C4CCC(=O)NC4=O)C5=O)CC3)cc2)nc1Nc1cccc(S(=O)(=O)NC(C)(C)C)c1 (stereo not shown) [JWG.118]
- logFC ALDH18A1 ([1]; experiment wp071): −0.4227
- logFC ([2]; GK P32189-3, experiment wp071): −0.4317
- logFC FASTKD2 (Q9NYY8) ([3]; Experiment wp071): −0.4341

SMILES: CC(C)(C)c1nc(-c2cccc(NS(=O)(=O)c3c(F)cccc3F)c2F)c(-c2ccnc(NCCOCCNC(=O)CCOCCOCCNc3cccc4c3C(=O)N(C3CCC(=O)NC3=O)C4=O)n2)s1 (stereo not shown) [DD.03.106]
- logFC ALDH18A1 ([1]; experiment wp147, 1 uM): −0.3463
- logFC ALDH18A1 ([1]; experiment wp147, 4 uM): −0.8823
- logFC ([2]; ACAD10 (Q6JQN1-5), experiment wp147, 4 uM): −0.7404
- logFC of CDK17 ([2]; experiment wp137): −0.8682
- logFC MAP3K20 (Q9NYL2-2) ([2]; Experiment wp147, 2 uM): −0.7388
- logFC MAP3K20 (Q9NYL2-2) ([2]; Experiment wp147, 4 uM): −0.4901
- logFC ([2]; GK P32189-3, experiment wp147, 4 uM): −0.4811
- logFC ([2]; LIMK2 (P53671-3), experiment wp047, direction down): −0.962
- logFC ([2]; LIMK2 (P53671-3), experiment wp147, 1 uM, direction down): −0.8736
- logFC ([2]; LIMK2 (P53671-3), experiment wp147, 2 uM, direction down): −1.082
- logFC ([2]; LIMK2 (P53671-3), experiment wp147, 4 uM, direction down): −0.9319
- logFC of LIMK2 ([2]; experiment wp047): −0.962
- logFC of LIMK2 ([2]; experiment wp147, 1 uM): −0.8736
- logFC of LIMK2 ([2]; experiment wp147, 2 uM): −1.082
- logFC of LIMK2 ([2]; experiment wp147, 4 uM): −0.9319
- logFC PDK3 ([2]; experiment wp137): −0.3571
- logFC PDK3 ([2]; experiment wp147, 4 uM): −0.6564
- logFC CDK16 (Q00536-2) ([2]; experiment wp137): −1.175
- logFC PDK3 (Q15120-2) ([2]; experiment wp137): −0.3571
- logFC of CDK17 (Q00537-2) ([2]; experiment wp137): −0.8682
- logFC CDK16 (Q00536-2) ([2]; experiment wp147, 1 uM): −0.5427
- logFC CDK16 (Q00536-2) ([2]; experiment wp147, 2 uM): −0.5385
- logFC MAP3K20 (Q9NYL2-2) ([2]; experiment wp147, 2 uM): −0.7388
- logFC CDK16 (Q00536-2) ([2]; experiment wp147, 4 uM): −0.4393
- logFC MAP3K20 (Q9NYL2-2) ([2]; experiment wp147, 4 uM): −0.4901
- logFC FASTKD2 (Q9NYY8) ([3]; Experiment wp147, 2 uM): −0.3392
- logFC FASTKD2 (Q9NYY8) ([3]; Experiment wp147, 4 uM): −0.9073

SMILES: CC(C)S(=O)(=O)c1ccccc1Nc1nc(Nc2ccc(N3CCN(CCOCCOCCNC(=O)CNc4cccc5c4C(=O)N(C4CCC(=O)NC4=O)C5=O)CC3)cc2)ncc1Cl (stereo not shown) [TL12.186]
- logFC of WEE1 ([4]; WEE1 P30291-1, experiment wp137): −2.511
- logFC WEE1 (P30291-1) ([4]; experiment wp016): −1.514
- logFC WEE1 (P30291-1) ([4]; experiment wp131): −2.574
- logFC WEE1 (P30291-1) ([4]; experiment wp137): −2.511
- logFC BLK ([5]; experiment wp131): −2.497
- logFC BLK ([5]; experiment wp137): −2.115
- logFC of BLK ([5]; BLK P51451, experiment wp016): −1.475
- logFC of BLK (P51451) ([5]; Experiment wp016): −1.475
- logFC of BLK (P51451) ([5]; Experiment wp131): −2.497
- logFC of BLK (P51451) ([5]; Experiment wp137): −2.115
- logFC [2, 6]: −0.9938
- logFC AURKB [2, 6]: −0.9938
- logFC [2, 7]: −0.9711
- logFC AURKB [2, 7]: −0.9711
- logFC BUB1B ([2]; Accession O60566-3, experiment wp131, direction down): −0.541
- logFC BUB1B ([2]; Accession O60566-3, experiment wp137, direction down): −0.5516
- logFC of SRC ([2]; experiment wp016): −0.3573
- logFC of SRC ([2]; experiment wp131): −0.7777
- logFC of SRC ([2]; experiment wp137): −0.5738
- logFC CSNK1D ([2]; Accession P48730-2, experiment wp137, direction down): −0.4721
- logFC of CDK17 ([2]; experiment wp137): −0.7026
- logFC BUB1B ([2]; BUB1B (O60566-3), experiment wp131): −0.541
- logFC BUB1B ([2]; BUB1B (O60566-3), experiment wp137): −0.5516
- logFC CSNK1D ([2]; CSNK1D P48730-2, experiment wp137): −0.4721
- logFC PRKAA1 (Q13131-2) ([2]; Experiment wp016, direction down): −0.434
- logFC PRKAA1 (Q13131-2) ([2]; Experiment wp131, direction down): −0.5988
- logFC PRKAA1 (Q13131-2) ([2]; Experiment wp137, direction down): −0.641
- logFC LCK ([2]; experiment wp016): −0.7129
- logFC LCK ([2]; experiment wp131): −1.455
- logFC LCK ([2]; experiment wp137): −1.373
- logFC ([2]; MARK2 Q7KZI7-14, experiment wp131): −0.4868
- logFC ([2]; PIP5K1A (Q99755-3), experiment wp131): −0.3436
- logFC ([2]; PIP5K1A (Q99755-3), experiment wp137): −0.4526
- logFC RPS6KA1 ([2]; RPS6KA1 (Q15418-2), experiment wp137): −0.4514
- logFC CDK9 (P50750-2) ([2]; experiment wp016): −0.6414
- logFC PRKAA1 (Q13131-2) ([2]; experiment wp016): −0.434
- logFC LCK (P06239-3) ([2]; experiment wp016): −0.7129
- logFC ABL2 (P42684-5) ([2]; experiment wp131): −0.8023
- logFC CDK9 (P50750-2) ([2]; experiment wp131): −1.451
- logFC PRKAA1 (Q13131-2) ([2]; experiment wp131): −0.5988
- logFC of ABL2 (P42684-5) ([2]; experiment wp131): −0.8023
- logFC of MARK2 (Q7KZI7-14) ([2]; experiment wp131): −0.4868
- logFC LCK (P06239-3) ([2]; experiment wp131): −1.455
- logFC CDK9 (P50750-2) ([2]; experiment wp137): −1.511
- logFC PRKAA1 (Q13131-2) ([2]; experiment wp137): −0.641
- logFC RPS6KA1 (Q15418-2) ([2]; experiment wp137): −0.4514
- logFC of CDK17 (Q00537-2) ([2]; experiment wp137): −0.7026
- logFC LCK (P06239-3) ([2]; experiment wp137): −1.373
- logFC FASTKD2 (Q9NYY8) ([3]; Experiment wp137): −0.3625

SMILES: CN(C)C(=O)c1cc2cnc(Nc3ccc(N4CCN(CCCCNC(=O)COc5cccc6c5C(=O)N(C5CCC(=O)NC5=O)C6=O)CC4)cn3)nc2n1C1CCCC1 (stereo not shown) [BSJ.04.132]
- logFC ALDH18A1 ([1]; experiment wp084): −0.6568
- logFC ([2]; ACAD10 (Q6JQN1-5), experiment wp084): −0.7484
- logFC ([2]; GK P32189-3, experiment wp084): −0.383
- logFC PDK3 ([2]; experiment wp084): −0.7397
- logFC PDK3 (Q15120-2) ([2]; experiment wp084): −0.7397
- logFC FASTKD2 (Q9NYY8) ([3]; Experiment wp084): −0.5107
